Experimental data as given in patent US20110009628A1, “Compounds and Compositions for Modulating Lipid Levels and Methods of Preparing Same” (priority 2009, published 2011).

Key:
Format in all cases: cell-based, human
[1] = system: LDL ligand uptake activity in HepG2 cells; assay: DiI-LDL uptake in HepG2 cells (Example 12)
Experimental: The combined beneficial effects of these novel compounds on elevation of LDLR mRNA levels likely through the mechanism of mRNA stabilization and their inhibitory activity towards PCSK9, the secreted protease that degrades LDLR protein, result in strong increases in LDL ligand uptake activity through increased receptor surface abundance. […] Briefly, HepG2 cells (2×10^5 cells/well) in 24-well culture plates were treated with various compounds at 10 and 40 uM concentrations for 20 hours. The fluorescent 1.1′-dioctadecyl-3,3,3′,3′-tetramethylindocarbocyanin perchlorate (DiI-LDL) (Biomedical Technologies, Stoughton, Mass.) at a concentration of 2 μg/ml was added to cells at the end of treatment. After 4 hours, the medium was removed; cells were washed with cold PBS, and were examined immediately under a fluorescent microscope (Nikon) at 200× amplification. The fluorescent intensity in compound-treated cells was compared to that in untreated control cells. […]

[2] = system: PCSK9 mRNA expression in HepG2 cells; assay: PCSK9 mRNA expression in HepG2 cells, quantitative real-time RT-PCR (Example 12); details: 24 hours
Experimental: (§1) The effects of compounds on the mRNA expressions of LDLR and PCSK9 were examined using quantitative real-time RT-PCR assays. HepG2 cells were treated with various compounds at 10 and 40 uM concentrations for 24 hours. Total RNA was isolated and […] was used to generate cDNA in a reaction containing random primers and M-MLV at 37° C. for 1 h in a volume of 25 μL. Real-time PCR was performed on the cDNA using MCEP REALPLEX 2 SYSTEM (Eppendorf) and Universal MasterMix (Applied Biosystems). Human LDLR, PCSK9, and GAPDH Pre-Developed TaqMan Assay Reagents (Applied Biosystems) were used to assess the levels of mRNA expressions in HepG2. The levels of LDLR and PCSK9 mRNA were normalized to that of GAPDH. Each RNA samples was assayed in duplicate. The fold activity was calculated by dividing mRNA abundance in compound treated cells with that of control.

[3] = system: LDLR mRNA expression in HepG2 cells; assay: LDLR mRNA expression in HepG2 cells, quantitative real-time RT-PCR (Example 12); details: 24 hours; for fold induction at 10 µM / fold induction at 40 µM: Homo sapiens; for fold induction at 10 µM: read-out: Activity on LDLR mRNA at 10 uM (fold of control); for fold induction at 40 µM: read-out: Activity on LDLR mRNA at 40 uM (fold of control)
Experimental: as §1

[4] = system: LDLR mRNA expression in HepG2 cells; assay: LDLR mRNA expression in HepG2 cells, quantitative real-time RT-PCR (Example 7); details: dose less than or equal to 10 μM, 24 hours
Experimental: In yet another experiment, HepG2 cells were treated with various compounds for 24 hours at the indicated doses. Total RNA was isolated and 2 μg was used to generate cDNA in a reaction containing random primers and M-MLV at 37° C. for 1 hour in a volume of 25 μL. Real-time PCR was performed on the cDNA using MCEP REALPLEX 2 SYSTEM (Eppendorf) and Universal MasterMix (Applied Biosystems). Human LDLR and GAPDH Pre-Developed TaqMan Assay Reagents (Applied Biosystems) were used to assess the levels of mRNA expressions in HepG2. The levels of LDLR mRNA were normalized to that of GAPDH. Each RNA samples was assayed in triplicate. The abundance of LDLR mRNA in untreated cells was defined as 1, and the amounts of LDLR mRNA from compound-treated cells were plotted relative to that value in FIG. 2B. The data shown are mean±s.d.
Activities of some compounds of Formulas I, II and EE on LDLR mRNA expression were determined. HepG2 cells were treated with new compounds individually at a dose less than or equal to 10 μM for 24 hours. […] In these experiments, berberine chloride was included for comparison.

[5] = 40 uM, 20 hours (second symbol of cell)
[6] = 10 uM, 20 hours (first symbol of cell)

SMILES	Activity in LDL uptake (relative to control) [1, 5]	PCSK9 mRNA level at 10 uM (fold of control) [2]	Activity on PCSK9 mRNA reduction at 40 uM (fold of control) [2]	fold induction at 10 µM ([3]; 10 uM)	fold induction at 40 µM ([3]; 40 uM)	Activity in LDL uptake (relative to control) [1, 6]	also measured
COc1cc2c(cc1OCCO)C1Cc3ccc(OC)c(OS(=O)(=O)c4ccccc4)c3CN1CC2 (centres unmarked) [Compound 143, 2-(2-hydroxyethoxy)-3,10-dimethoxy-5,6,7,8,13,13a-hexahydroisoquinolino[2,1-b]isoquinolin-9-yl benzenesulfonate]	++	1.09 ± 0.09 fold of control	0.48 ± 0.06 fold of control	1.87 ± 0.03	15 ± 1.68		
COC(=O)c1cc2c(cc1OC)CCN1Cc3c(ccc(OC)c3OS(=O)(=O)c3ccccc3)CC21 (centres unmarked) [Compound 131, Methyl 3,10-dimethoxy-9-(phenylsulfonyloxy)-5,6,7,8,13,13a-hexahydroisoquinolino[3,2-a]isoquinoline-2-carboxylate]	+/+	0.87 ± 0.04 fold of control	0.72 ± 0.10 fold of control	0.67 ± 0.05	2.25 ± 0.13	+/+	
COc1ccc2c(c1)CCN1Cc3c(OS(=O)(=O)c4cccc(F)c4)ccc(Br)c3CC21 (centres unmarked) [Compound 149, 12-bromo-3-methoxy-5,6,7,8,13,13a-hexahydroisoquinolino[2,1-b]isoquinolin-9-yl 3-fluorobenzenesulfonate]	+/+					+/+	
COc1cc2c(cc1C(=O)O)C1Cc3ccc(OC)c(OS(=O)(=O)c4ccccc4)c3CN1CC2 (centres unmarked) [Compound 135, 3,10-Dimethoxy-9-(phenylsulfonyloxy)-5,6,7,8,13,13a-hexahydro isoquinolino[3,2-a]isoquinoline-2-carboxylic acid]	+	0.97 ± 0.04 fold of control	1.10 ± 0.14 fold of control	1.72 ± 0.13	1.86		
COc1cc2c(cc1OC)C1C(C)c3ccc(OC)c(OS(=O)(=O)c4ccccc4)c3CN1CC2 (centres unmarked) [Compound 139, 2,3,10-Trimethoxy-13-methyl-5,6,7,8,13,13a-hexahydro isoquinolino[2,1-b]isoquinolin-9-yl benzenesulfonate]	++/++	0.46 ± 0.04 fold of control	0.27 ± 0.02 fold of control	11.5 ± 1.29	3.02 ± 0.34	++/++	
COc1ccc2c(c1)CCN1Cc3c(ccc(OC)c3OS(=O)(=O)c3ccccc3)C(C)C21 (centres unmarked) [Compound 140, 3,10-Dimethoxy-13-methyl-5,6,7,8,13,13a-hexahydro isoquinolino[2,1-b]isoquinolin-9-yl benzenesulfonate]	++/++	0.43 ± 0.08 fold of control	0.51 ± 0.08 fold of control	6.65 ± 0.68	8.6 ± 2	++/++	
COc1ccc2c(c1)CCN1Cc3c(ccc(OC)c3OS(=O)(=O)c3ccccc3)CC21 (centres unmarked) [Compound 116, 3,10-Dimethoxy-5,6,7,8,13,13a-hexahydroisoquinolino[2,1-b]isoquinolin-9-yl benzenesulfonate]	+++/+++			1.41 ± 0.04	7.19 ± 1.29	+++/+++	
COc1ccc2c(c1OS(=O)(=O)c1ccccc1)CN1CCc3cc4c(cc3C1C2)OCCO4 (centres unmarked) [Compound 115, 11-Methoxy-6,7,8,9,14,14a-hexahydro-2H,3H-1,4-dioxano[5,6-g]isoquinolino[3,2-a]isoquinolin-10-yl benzenesulfonate]	+++						Activity on LDLR mRNA at 10 uM (fold of control) ([3]; 10 uM): 0.51 ± 0.11 fold of control; Activity on LDLR mRNA at 40 uM (fold of control) ([3]; 40 uM): 2.65 ± 0.06 fold of control
COc1ccc2c(c1OS(=O)(=O)c1ccccc1)CN1CCc3cc(C)ccc3C1C2 (centres unmarked) [Compound 121, 10-Methoxy-3-methyl-5,6,7,8,13,13a-hexahydroisoquinolino[2,1-b]isoquinolin-9-yl benzenesulfonate]	+			3.56 ± 0.03	3.43 ± 0.81	+++	
COc1cc2c(cc1OCC(=O)O)C1Cc3ccc(OC)c(OS(=O)(=O)c4ccccc4)c3CN1CC2 (centres unmarked) [Compound 144, 2-[3,10-dimethoxy-9-(phenylsulfonyloxy)-5,6,7,8,13,13a-hexahydroisoquinolino[3,2-a]isoquinolin-2-yloxy]acetic acid]		0.99 ± 0.09 fold of control	1.84 ± 0.15 fold of control	1.02 ± 0.09	2.69 ± 0.31		
COc1ccc2c(c1)CCN1Cc3c(O)cccc3CC21 (centres unmarked) [Compound 151, 3-methoxy-5,6,7,8,13,13a-hexahydroisoquinolino[2,1-b]isoquinolin-9-ol]	+						
COc1ccc2c(c1OS(=O)(=O)c1cccc([N+](=O)[O-])c1)CN1CCc3cc4c(cc3C1C2)OCO4 (centres unmarked) [Compound 63, 10-methoxy-5,6,7,8,13,13a-hexahydro-2H-1,3-dioxolano[4,5-g]isoquinolino[3,2-a]isoquinolin-9-yl 3-nitrobenzenesulfonate]							Activity on LDLR mRNA expression (Fold of control) [4]: 2.94 ± 0.13 Fold of control
COc1ccc2c(c1OS(=O)(=O)c1ccc(-c3ccccc3)cc1)CN1CCc3cc4c(cc3C1C2)OCO4 (centres unmarked) [Compound 37, 10-methoxy-5,6,7,8,13,13a-hexahydro-2H-1,3-dioxolano[4,5-g]isoquinolino[3,2-a]isoquinolin-9-yl 4-phenylbenzenesulfonate]							Activity on LDLR mRNA expression (Fold of control) [4]: 2.47 ± 0.07 Fold of control
COc1ccc2c(c1)CCN1Cc3c(cccc3OS(=O)(=O)c3cccc(F)c3)CC21 (centres unmarked) [Compound 150, 3-methoxy-5,6,7,8,13,13a-hexahydroisoquinolino[2,1-b]isoquinolin-9-yl 3-fluorobenzenesulfonate]	++					+	
COc1ccc2c(c1Oc1ncc(N)cc1C)CN1CCc3cc4c(cc3C1C2)OCO4 (centres unmarked) [Compound 100, 6-(10-methoxy(5,6,7,8,13,13a-hexahydro-2H-1,3-dioxolano[4,5-g]isoquinolino[3,2-a]isoquinolin-9-yloxy))-5-methyl-3-pyridylamine]							Activity on LDLR mRNA expression (Fold of control) [4]: 1.44 ± 0.59 Fold of control
COc1ccc2c(c1OS(=O)(=O)C(F)(F)F)CN1CCc3cc4c(cc3C1C2)OCO4 (centres unmarked) [Compound 90, 10-methoxy-5,6,7,8,13,13a-hexahydro-2H-1,3-dioxolano[4,5-g] isoquinolino[3,2-a] isoquinolin-9-yl (trifluoromethyl)sulfonate]							Activity on LDLR mRNA expression (Fold of control) [4]: 1.21 ± 0.07 Fold of control
COc1ccc2c(c1OS(=O)(=O)c1ccccc1F)CN1CCc3cc4c(cc3C1C2)OCO4 (centres unmarked) [Compound 51, 10-methoxy-5,6,7,8,13,13a-hexahydro-2H-1,3-dioxolano[4,5-g]isoquinolino[3,2-a]isoquinolin-9-yl 2-fluorobenzenesulfonate]							Activity on LDLR mRNA expression (Fold of control) [4]: 3.79 ± 0.33 Fold of control
